From PMC9714921 (PLOS Pathogens, 2022)

What was measured:
T. suis N-AChR = details: read-out: EC50 μM ACh; accessory protein Ric-3; ref [34]; cited from earlier work
[1] = test system: TZC-ECD (T. callipaeda ECD in Asu-ACR-16); assay: Voltage-clamp electrophysiology, A. suum/T. callipaeda ACR-16 chimera in oocytes; format: cell-based; details: S2C Fig
Protocol: (§1) B. malayi acr-16 and accessory proteins ric-3, unc-50, unc-74 and molo-1 were cloned from adult female B. malayi cDNA received as a gift from Dr. T. Geary using the primers described in S1 Table. B. malayi eat-18 was prepared from two overlapping oligonucleotide primers. Other subunits were synthesized from their predicted genome sequence (Gene Universal, USA) (S2 Table). […] All sequences were cloned into the pTD2 oocyte expression vector. Asu-ACR-16 and Tzc-ACR-16 chimeras were constructed using appropriate restriction enzymes, reciprocal exchange through ligation and confirmed by sequencing (McLab, USA).
(§2) cRNA for oocyte injection was prepared with the mMESSAGE mMACHINE T7 kit following manufacturers protocol (Ambion, USA). Concentration was determined using a Nanodrop spectrophotometer. Desired subunit combinations with associated accessory proteins were mixed and diluted with nuclease-free water to a final concentration of 250 ng/uL for each construct.
(§3) Adult female X. laevis oocyte extraction was performed in accordance with the McGill University Animal Use Protocol 2015–7758 following standard protocol. Briefly, frog ovary lobes were placed in a Ca^2+-free OR2 solution (82 mM NaCl, 2 mM KCl, 1 mM MgCl2, 5 mM HEPES buffer, pH 7.3) and manually divided into clusters of <10 oocytes with thin tweezers followed by a 90-minute incubation in 10 mg/mL collagenase type II (Sigma-Aldrich, USA). Oocytes were washed in Ca^2+-free OR2 and placed ND96 solution (NaCl 96 mM, KCl 2 mM, CaCl2 1.8 mM, MgCl2 1 mM and HEPES 5 mM, pH 7.3) supplemented with sodium pyruvate 2.5 mM [86] and incubated at 18°C until cRNA injection. Oocytes were injected with 50 nL (12.5 ng of each injected gene) of the desired cRNA subunit and accessory protein combination mix with the NanojectII (Drummond Scientific, USA). Following injection, oocytes were incubated in ND96 buffer at 18°C until electrophysiology. All electrophysiology was conducted two days post-injection, except for the expression analysis assay in which oocytes were measured every day after injection for three consecutive days.
(§4) All drugs were dissolved in recording solution (NaCl 100 mM, KCl 2.5 mM, CaCl2 1 mM, HEPES 5 mM, pH 7.3) to a stock concentration of 10 mM and diluted to their final recording concentrations. Oxantel and bephenium were first dissolved in DMSO to ensure a final recording concentration contained less than 0.1% DMSO. For agonist profiling, all drugs were diluted to a concentration of 100 μM.
(§5) Oocytes were placed individually in an RC3Z chamber (Harvard Apparatus, USA) submerged in recording solution (NaCl 100 mM, KCl 2.5 mM, CaCl2 1 mM, HEPES 5 mM, pH 7.3). The RC3Z chamber was connected to a perfusion system containing recording solution and ligand solutions. Pulled glass capillaries (World Precision Instruments, USA) were filled with 3M KCl and the tips clipped and checked for appropriate resistance (between 0.5 and 5 MΩ). A 3M KCl agar bridge grounded the oocyte bath chamber. Measurements were made using an Axon Axoclamp 900A amplifier with Digidata1550M. […] Ligand solutions were applied to the oocytes with an approximate flow rate of 1.2 m/s and current responses measured. Oocytes were exposed to the ligand solution until a distinct current peak was observed followed by a wash with the recording solution until current returned to baseline for a minimum of 10 seconds until the next ligand exposure. For BAPTA-AM exposed oocytes, oocytes were incubated in 100 μM BAPTA-AM for four hours prior to electrophysiology recording. Data was analyzed using Clampex 9.2 (Axon Instruments, USA) and statistical analysis and graphs produced in Prism (GraphPad version 9.1). T-tests were used to compare responses with error bars representing standard error. For concentration-response curves, individual oocyte current response to the different ligand concentrations were normalized to the response obtained with 300 μM.

[2] = test system: ASU-ICL (A. suum ICL in Tzc-ACR-16); assay: as above; format: cell-based; details: S2C Fig
Protocol: as §1, §2, §3, §4, §5

[3] = test system: ASU-ECD (A. suum ECD in Tzc-ACR-16); assay: as above; format: cell-based; details: S2C Fig
Protocol: as §1, §2, §3, §4, §5

[4] = test system: ASU-TM (A. suum TM regions in Tzc-ACR-16); assay: as above; format: cell-based; details: S2C Fig
Protocol: as §1, §2, §3, §4, §5

[5] = test system: TZC-ICL (T. callipaeda ICL in Asu-ACR-16); assay: as above; format: cell-based; details: S2C Fig
Protocol: as §1, §2, §3, §4, §5

[6] = test system: TZC-TM (Tzc-TM region in A. suum ACR-16); assay: as above; format: cell-based; details: S2C Fig
Protocol: as §1, §2, §3, §4, §5

CC(=O)OCC[N+](C)(C)C [ACh, acetylcholine]
EC50 (T. suis N-AChR): 14.5 ± 1.03 µM
response to ACh [1]: 42 ± 9 nA
response to ACh [2]: 2237 ± 98 nA
response to ACh [3]: 1819 ± 115 nA
response to ACh [4]: 24 ± 8 nA
response to ACh [5]: 1959 ± 78 nA
response to ACh [6]: 2917 ± 105 nA
